Source: PMC7214178, “Ligand‐specific recycling profiles determine distinct potential for chronic analgesic tolerance of delta‐opioid receptor (DOPr) agonists” (Journal of Cellular and Molecular Medicine, 2020)

What was measured:
[1] = tested on: rat model of streptozotocin (STZ)‐induced diabetic neuropathy; experiment: Heterologous tolerance to a common probe (deltorphin II ED50) before and after 6‐day treatment, with or without 6634449; assay type: in vivo; conditions: for Heterologous tolerance (response to deltorphin II ED50) with 6634449 co‐administration: 6634449 or vehicle i.t. 20 min before each of six agonist injections at ED80, five rats/group; for Tolerance to common probe deltorphin II (ED50) after 6‐day treatment: probe i.t. one day before and one day after six i.t. injections at ED80, 7 rats/group
Experimental: Type I diabetes was induced by systemic injection of streptozotocin (STZ, 65 mg/kg, i.p.) according to a standardized methodology, which allows development of persistent diabetic neuropathy after the first week of treatment. ^20 At the end of the first week, blood was extracted from the tail vein and blood glucose levels were measured with a glucometer (Accu‐Chek Aviva; Roche Diagnostics) prior to evaluation of analgesia on the second week.
Mechanical allodynia is the consequence of maladaptive neuroplasticity following nerve damage. ^24 In a model of diabetic neuropathy as the one used in this study, hyperglycaemia contributes to generate reactive oxygen species which induce microglia activation and inflammatory mediators. ^25 , ^26 These mediators attenuate the activity of Gly/GABA interneurons in superficial layers ^24 , ^27 , ^28 , ^29 and disrupt the inhibitory control that prevents innocuous touch stimuli from producing pain which leads to allodynia. ^30 DOPrs are expressed in these light‐touch mechanoreceptors ^31 and up‐regulated during sensitization, ^32 , ^33 making DOPr agonists elective for relieving this type of pain. Allodynia was evaluated using Von Frey filaments as previously described. ^19 Briefly, rats were accustomed for 15 min on a metal mesh floor under an inverted plastic box (20 × 10 × 10 cm) in a quiet room dedicated to this behavioural test. After habituation, the plantar surface of the right and left hind legs was alternately touched (6‐8 seconds) with von Frey filaments of progressively wider diameter in order to find the threshold of pressure required to produce withdrawal. The mechanical threshold response was obtained by consigning the pressure in grams that would result in withdrawal of the paw in 50% of 10 trials. A normal rat responds to tactile pressures of 12‐15 g whereas neuropathic rats respond to pressures of 4‐6 g. ^24
To evaluate homologous tolerance, each agonist was injected i.t. once daily for six consecutive days, at ED80 derived from dose‐response curves (deltorphin‐IIED80: 0.30 nmol/30 μL; TIPPED80: 0.40 nmol/30 μL; SB235863ED80: 1.7 nmol/30 μL and SNC‐80ED80: 0.55 nmol/30 μL). Immediately after drug administration, mechanical allodynia was measured every 15 minutes until the analgesic response disappeared. […] Prior to starting any pharmacological treatment, the presence of allodynia was confirmed. Treatments and measures were carried out randomly by two different experimenters to ensure blinding to treatment for the person assessing allodynia. In a series of experiments, an inhibitor of endothelin‐converting enzyme 2 (ECE2), 6634449, was administered by i.t injection (3 nmol/30 μL) 20 minutes prior to administration of DOPr ligands from 2 to 7 days. The vehicle (4% DMSO diluted in CSF sterile) was given as control. The dose of 6634449 used in this study was based on results previously published. ^25
Figure 1 Experimental design. One week after STZ administration, repeated treatments with DOPr agonists were started. Before starting chronic treatment with ED80 of deltorphin II, TIPP, SB235863 or SNC‐80, animals were tested to establish the baseline allodynia. Immediately after, they were injected with deltorphin II at a dose corresponding to ED50, which was repeated at the end of treatment. Allodynia measures were taken every 15 min after each injection until analgesic effects disappeared. Chronic tolerance was evaluated by comparing analgesic response to successive i.t. injections of each agonist between days 2 and 6. Difference in analgesic response to deltorphin II ED50 in days 1 and 8 allowed to establish tolerance induced by the different agonists to this common probe

Flag‐DOPr = experiment: Agonist‐induced internalization of Flag‐DOPrs in primary cortical neuron cultures; assay type: cell-based, Murine; conditions: 10 µmol/L, 60 min; rat primary cortical neurons transfected with Flag‐DOPr; three independent experiments
Experimental: Primary neuronal cultures were prepared from rat post‐natal prefrontal cortex (P0‐P2) as previously described. ^19 Briefly, three cultures were independently prepared from 8 to 12 pups each. Pups were cryo‐anaesthetized, and brains were removed and transferred into ice‐cold dissociation solution (NaS0_4 90 mmol/L; K2SO4 30 mmol/L; MgCl2 5.8 mmol/L; CaCl20.25 mmol/L; HEPES 10 mmol/L; glucose 20 mmol/L; pH 7.4). Following dissection, the frontal cortex was digested in papain solution (20 U/mL; 40 minutes at 37°C), and the product passed through Pasteur pipettes of progressively decreasing diameter for mechanical dissociation. The suspension obtained was centrifuged, and cells were then resuspended and diluted to a density of 2.5 million/mL, before plating onto glass coverslips pre‐coated with collagen/poly l‐lysine (each at 0.1 mg/mL). Culture proceeded in supplemented Neurocell medium (B27 4%; 100 U/mL penicillin‐streptomycin; GlutaMAX 2%; FBS 10%) for 24 hours. Coverslips were then transferred to a six‐well plate containing 2 mL of Neurocell medium/well and transfected with Flag‐DOPr (8 µg/well), using a calcium phosphate transfection protocol previously. ^19 Murine DORs tagged with the Flag epitope at the N terminus were a generous gift from Dr M. von Zastrow (University of California at San Francisco, San Francisco, CA).
Immunolabelling of surface receptors for quantification of trafficking was performed as previously described. ^19 Briefly, primary cultures expressing Flag‐DOPrs were incubated at 37°C with Neurocell medium containing Ca^2+‐dependent mouse anti‐Flag M1 antibody (1:100; Sigma). […]
Cytoplasmic and surface labelling densities were quantified with ImageJ using a previously described method, ^27 with small modifications. ^16 In particular, total cytoplasmic labelling density was obtained by measuring fluorescence intensity within the region confined between the external and nuclear perimeters, and dividing this value by the corresponding area. […]

DOPr = tested on: DOPr; design: method as in PMID 24174495; conditions: cited from earlier work

CCC(C)COC(=O)c1[nH]c2c(c1C)CC1C3Cc4ccc(OC)c5c4C1(CCN3C)C2O5.Cl (stereo not drawn) [SB235863, [8R‐(4bS*,8aα,8aβ,12bβ)]7,10‐dimethyl‐1‐methoxy‐11‐(2‐ethylpropyl)oxycarbonyl 5,6,7,8,12,12b‐hexahydro‐(9H)‐4,8‐methanobenzofuro[3,2‐e]pyrrolo[2,3‐g]isoquinoline hydrochloride]
Heterologous tolerance (response to deltorphin II ED50) with 6634449 co‐administration [1]: remained unchanged
Tolerance to common probe deltorphin II (ED50) after 6‐day treatment [1]: induced cross‐tolerance
Sequestration (intracellular labelling density) (Flag‐DOPr): low‐internalizing
Decay of cAMP inhibition in HEK cells (DOPr): slow decay

C=CCN1C[C@H](C)N([C@H](c2ccc(C(=O)N(CC)CC)cc2)c2cccc(OC)c2)C[C@H]1C [SNC‐80, (+)‐4‐[(αR)‐α‐((2S,5R)‐4‐allyl‐2,5‐dimethyl‐1‐piperazinyl)‐3‐methoxybenzyl]‐N,N‐diethylbenzamide]
Heterologous tolerance (response to deltorphin II ED50) with 6634449 co‐administration [1]: remained unchanged
Tolerance to common probe deltorphin II (ED50) after 6‐day treatment [1]: induced cross‐tolerance
Sequestration (intracellular labelling density) (Flag‐DOPr): significantly higher
Decay of cAMP inhibition in HEK cells (DOPr): fast decay

deltorphin II
Heterologous tolerance (response to deltorphin II ED50) with 6634449 co‐administration [1]: reduced analgesic effect
Tolerance to common probe deltorphin II (ED50) after 6‐day treatment [1]: without effect
Sequestration (intracellular labelling density) (Flag‐DOPr): significantly higher
Decay of cAMP inhibition in HEK cells (DOPr): fast decay
